Data on 35 compounds can be found in patent US6093732A, “4-hydroxyquinoline-3-carboxamides and hydrazides as antiviral agents” (Pharmacia & Upjohn Company, priority 1998, dated 2000).

Where a name gives a salt, the structure may show the parent alone.

The assay deals with T1, HCMV polymerase (Human cytomegalovirus, UniProt P08546).
T1 construct: made in house; host or cells: recombinant baculovirus-infected SF-9 cells
T1 sequence (P08546 whole entry): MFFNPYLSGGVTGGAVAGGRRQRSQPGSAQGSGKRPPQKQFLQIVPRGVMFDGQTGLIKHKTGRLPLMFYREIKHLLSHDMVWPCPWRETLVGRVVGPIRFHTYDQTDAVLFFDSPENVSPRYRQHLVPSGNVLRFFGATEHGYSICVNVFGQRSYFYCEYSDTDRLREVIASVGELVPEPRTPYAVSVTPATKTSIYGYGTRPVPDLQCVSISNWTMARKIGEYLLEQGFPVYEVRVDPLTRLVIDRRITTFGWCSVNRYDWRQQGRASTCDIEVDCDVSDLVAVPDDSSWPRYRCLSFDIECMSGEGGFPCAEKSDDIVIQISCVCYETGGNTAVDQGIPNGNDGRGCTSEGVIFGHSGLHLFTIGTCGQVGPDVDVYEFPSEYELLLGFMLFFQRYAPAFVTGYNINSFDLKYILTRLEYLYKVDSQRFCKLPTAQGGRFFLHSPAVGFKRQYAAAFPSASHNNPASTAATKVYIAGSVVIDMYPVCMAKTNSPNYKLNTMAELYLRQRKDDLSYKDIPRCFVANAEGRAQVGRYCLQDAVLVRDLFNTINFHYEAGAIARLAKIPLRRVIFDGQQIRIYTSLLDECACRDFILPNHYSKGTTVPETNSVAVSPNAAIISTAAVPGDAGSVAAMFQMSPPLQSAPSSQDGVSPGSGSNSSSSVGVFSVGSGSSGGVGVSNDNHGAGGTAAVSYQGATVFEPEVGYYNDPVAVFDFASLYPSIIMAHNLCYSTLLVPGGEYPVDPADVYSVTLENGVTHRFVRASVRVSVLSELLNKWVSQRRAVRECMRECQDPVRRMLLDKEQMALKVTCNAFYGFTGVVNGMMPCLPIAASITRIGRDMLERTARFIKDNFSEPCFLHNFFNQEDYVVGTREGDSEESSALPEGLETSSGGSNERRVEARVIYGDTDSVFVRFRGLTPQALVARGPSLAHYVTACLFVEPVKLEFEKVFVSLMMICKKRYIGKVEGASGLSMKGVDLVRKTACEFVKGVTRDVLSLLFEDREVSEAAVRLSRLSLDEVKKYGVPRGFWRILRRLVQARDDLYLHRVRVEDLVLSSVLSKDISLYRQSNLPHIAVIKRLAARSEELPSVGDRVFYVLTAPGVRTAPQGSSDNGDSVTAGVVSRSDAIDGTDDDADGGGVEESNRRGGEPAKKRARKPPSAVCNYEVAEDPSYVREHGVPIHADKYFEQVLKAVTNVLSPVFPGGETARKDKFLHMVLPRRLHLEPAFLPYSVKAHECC
The assay is described as follows: HCMV polymerase scintillation proximity assay (SPA), modified version. The note with it: CMV polymerase; Table 1; modified assay with 4.5 mM DTT, compounds in 100% DMSO; read-out: Antiviral Selective Polymerase IC50 Values, CMV. Format: biochemical. Put shortly:
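SPA measuring 3H-dTTP (90 nM) incorporation on 6 nM biotinylated poly(dA)-oligo(dT) by SF-9-expressed enzyme, pH 7.5 HEPES/KCl/MgCl2/BSA buffer with or without 2 mM CHAPS. Run at 25° C or 37° C, stopped with EDTA while linear (HCMV 30 min); IC50 from linear regression. Modified format adds 4.5 mM DTT, compounds diluted in 100% DMSO.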
For orientation: Scintillation proximity formats need no separation of bound from free tracer.
As usually defined, the IC50 is the concentration at which inhibition is half-maximal. `COc1ccc(CNS(=O)(=O)c2cc(F)c3ncc(C(=O)NCc4ccc(Cl)cc4)c(O)c3c2)cc1` [Example 221, N-(4-chlorobenzyl)-8-fluoro-4-hydroxy-6-{[(4-methoxybenzyl)amino]sulfonyl}-3-quinolinecarboxamide]: the IC50 is 12.5 µM.
The value for `COc1ccc2[nH]cc(CCNS(=O)(=O)c3cc(F)c4ncc(C(=O)NCc5ccc(Cl)cc5)c(O)c4c3)c2c1` [Example 211, N-(4-chlorobenzyl)-8-fluoro-4-hydroxy-6-({[2-(5-methoxy-1H-indol-3-yl)ethyl]amino}sulfonyl)-3-quinolinecarboxamide] was 5.1 µM; that for `CCSCCNS(=O)(=O)c1cc(F)c2ncc(C(=O)NCc3ccc(Cl)cc3)c(O)c2c1` [Example 247] was 10.2 µM.
The same measure for `O=C(NCc1ccc(Cl)cc1)c1cnc2c(F)cc(S(=O)(=O)Nc3ccccn3)cc2c1O` [Example 200, N-(4-Chlorobenzyl)-8-fluoro-4-hydroxy-6-[(2-pyridinylamino)-sulfonyl]-3-quinolinecarboxamide]: 38.8 µM; for `O=C(NCc1ccc(Cl)cc1)c1cnc2cc(F)c(F)cc2c1O` [Example 169, N-[(4-Chlorophenyl)methyl]-6,7-difluoro-4-hydroxy-3-quinolinecarboxamide]: 3.7 µM.
The same measure for `CCSCC#Cc1cc(F)c2ncc(C(=O)NCc3ccc(Cl)cc3)c(O)c2c1` [Example 127, N-[(4-Chlorophenyl)methyl]-6-[3-(ethylthio)-1-propynyl]-8-fluoro-4-hydroxy-3-quinolinecarboxamide]: 23.5 µM; for `O=C(NCc1ccc(Cl)cc1)c1cnc2c(F)cc(S(=O)(=O)NCCN(CCO)CCO)cc2c1O` [Example 250, 6-[({2-[bis(2-hydroxyethyl)amino]ethyl}amino)sulfonyl]-N-(4-chlorobenzyl)-8-fluoro-4-hydroxy-3-quinolinecarboxamide]: 45.2 µM; for `N#Cc1ccc2ncc(C(=O)NCc3ccc(Cl)cc3)c(O)c2c1` [Example 24, N-[(4-Chlorophenyl)methyl]-6-cyano-4-hydroxy-3-quinoline-carboxamide]: 4.9 µM.
Turning to `O=C(NCc1ccc(Cl)cc1)c1cnc2c(F)cc(S(=O)(=O)NCCc3cccs3)cc2c1O` [Example 255, N-(4-chlorobenzyl)-8-fluoro-4-hydroxy-6-({[2-(2-thienyl)ethyl]amino}sulfonyl)-3-quinolinecarboxamide], the IC50 came out at 12.1 µM.
The same measure for `O=C(NCc1ccc(Cl)cc1)c1cnc2c(F)cc(-c3ccccn3)cc2c1O` [Example 90, N-(4-Chlorobenzyl)-8-fluoro-4-hydroxy-6-(2-pyridinyl)-3-quinolinecarboxamide]: 2.9 µM; for `O=C(NCc1ccc(Cl)cc1)c1cnc2c(Cl)ccc(C(F)(F)F)c2c1O` [Example 59, 8-Chloro-N-((4-chlorophenyl)methyl)-4-hydroxy-5-trifluoro-methyl-3-quinolinecarboxamide]: 33.1 µM; for `O=C(NCc1ccc(Cl)cc1)c1cnc2c(F)cc(O)cc2c1O` [Example 3, N-[(4-Chlorophenyl)methyl]-8-fluoro-4,6-dihydroxy-3-quinoline-carboxamide]: 24 µM.
The same measure for `Cc1cc(F)c2ncc(C(=O)NNc3ccc(Cl)cc3)c(O)c2c1` [Example 55, 8-Fluoro-4-hydroxy-6-methyl-3-quinolinecarboxylic acid 2-(4-chlorophenyl)hydrazide]: 5 µM; for `O=C(NCc1ccc(Cl)cc1)c1cnc2c(F)cc(S(=O)(=O)NCc3ccccn3)cc2c1O` [Example 216, N-(4-chlorobenzyl)-8-fluoro-4-hydroxy-6-{[(2-pyridinylmethyl)amino]sulfonyl}-3-quinolinecarboxamide]: 18.7 µM; for `COC(=O)c1ccc2ncc(C(=O)NCc3ccc(Cl)cc3)c(O)c2c1` [Example 165, Methyl 3-{[(4-chlorobenzyl)amino]carbonyl}-4-hydroxy-6-quinolinecarboxylate]: 6.7 µM.
The same measure for `O=C(NCc1ccc(Cl)cc1)c1cnc2cc(NS(=O)(=O)c3ccccc3)ccc2c1O` [Example 33, N-[(4-Chlorophenyl)methyl]-4-hydroxy-7-[(phenylsulfonyl)-amino]-3-quinolinecarboxamide]: 24.3 µM; for `O=C(NCc1ccc(Cl)cc1)c1cnc2c(F)cc(S(=O)(=O)NCCOCCO)cc2c1O` [Example 228, N-(4-chlorobenzyl)-8-fluoro-4-hydroxy-6-({[2-(2-hydroxyethoxy)ethyl]amino}sulfonyl)-3-quinolinecarboxamide]: 44.3 µM; for `C#CCNS(=O)(=O)c1cc(F)c2ncc(C(=O)NCc3ccc(Cl)cc3)c(O)c2c1` [Example 232, N-(4-chlorobenzyl)-8-fluoro-4-hydroxy-6-[(2-propynylamino)sulfonyl]-3-quinolinecarboxamide]: 23.4 µM.
As to `O=C(NCc1ccc(Cl)cc1)c1cnc2cc(NS(=O)(=O)c3ccc(Cl)cc3)ccc2c1O` [Example 35, N-[(4-Chlorophenyl)methyl]-7-[[(4-chlorophenyl)sulfonyl]amino]-4-hydroxy-3-quinolinecarboxamide], the IC50 was 9.2 µM.
The same measure for `O=C(O)/C=C/c1cc(F)c2ncc(C(=O)NCc3ccc(Cl)cc3)c(O)c2c1` [Example 113, (E)-3-(3-{[(4-Chlorobenzyl)amino]carbonyl}-8-fluoro-4-hydroxy-6-quinolinyl)-2-propenoic acid]: 10.4 µM; for `O=C(NCc1ccc(Cl)cc1)c1cc(F)c2ncc(C(=O)NCc3ccc(Cl)cc3)c(O)c2c1` [Example 185, N^3,N^6 -Bis(4-chlorobenzyl)-8-fluoro-4-hydroxy-3,6-quinolinedicarboxamide]: 32.8 µM; for `O=C(NCc1ccc(Cl)cc1)c1cnc2c(F)cc(S(=O)(=O)NCC3CCCO3)cc2c1O` (centres unmarked) [Example 208, N-(4-chlorobenzyl)-8-fluoro-4-hydroxy-6-{[(tetrahydro-2-furanylmethyl)amino]sulfonyl}-3-quinolinecarboxamide]: 41.6 µM.
The same measure for `O=C(NCc1ccc(Cl)cc1)c1cnc2ccc(CO)cc2c1O` [Example 166, N-(4-Chlorobenzyl)-4-hydroxy-6-(hydroxymethyl)-3-quinolinecarboxamide]: 7 µM.
The value for `NNC(=S)c1cc(F)c2ncc(C(=O)NCc3ccc(Cl)cc3)c(O)c2c1` [Example 98, N-(4-Chlorobenzyl)-8-fluoro-6-(hydrazinocarbothioyl)-4-hydroxy-3-quinolinecarboxamide] was 1.3 µM; that for `N#CCNS(=O)(=O)c1cc(F)c2ncc(C(=O)NCc3ccc(Cl)cc3)c(O)c2c1` [Example 240, N-(4-chlorobenzyl)-6-{[(cyanomethyl)amino]sulfonyl}-8-fluoro-4-hydroxy-3-quinolinecarboxamide] was 11.4 µM.
As for `O=C(NCc1ccc(Cl)cc1)c1cnc2c(F)cc(S(=O)(=O)NCc3cccc(I)c3)cc2c1O` [Example 242, N-(4-chlorobenzyl)-8-fluoro-4-hydroxy-6-{[(3-iodobenzyl)amino]sulfonyl}-3-quinolinecarboxamide], the 50% inhibitory concentration (IC50) is 8.4 µM.
For `NCCCCC(N)C(=O)OCCCc1cc(F)c2ncc(C(=O)NCc3ccc(Cl)cc3)c(O)c2c1` (centres unmarked) [Example 156, 3-(3-{[(4-Chlorobenzyl)amino]carbonyl}-8-fluoro-4-hydroxy-6-quinolinyl)propyl 2,6-diaminohexanoate, trifluoroacetic acid salt], the half-inhibitory concentration (IC50) worked out at 15.9 µM.
The value for `O=C(NCc1ccc(Cl)cc1)c1cnc2c(F)cc(S(=O)(=O)NCC(c3ccccc3)c3ccccc3)cc2c1O` [Example 225, N-(4-chlorobenzyl)-6-{[(2,2-diphenylethyl)amino]sulfonyl}-8-fluoro-4-hydroxy-3-quinolinecarboxamide] was 8.5 µM; that for `O=C(NCc1ccc(Cl)cc1)c1cnc2c(F)cc(S(=O)(=O)NCc3cccc(OC(F)(F)F)c3)cc2c1O` [Example 259, N-(4-chlorobenzyl)-8-fluoro-4-hydroxy-6-({[3-(trifluoro-methoxy)benzyl]amino}sulfonyl)-3-quinolinecarboxamide] was 6.1 µM.
The same measure for `COCCOc1c(F)c(F)cc2c(O)c(C(=O)NCc3ccc(Cl)cc3)cnc12` [Example 84, N-((4-Chlorophenyl)methyl)-6,7-difluoro-4-hydroxy-8-(2-(methoxy)ethoxy)-3-quinolinecarboxamide]: 0.79 µM.
The same measure for `O=C(NCc1ccc(Cl)cc1)c1cnc2cc(NS(=O)(=O)Cc3ccccc3)ccc2c1O` [Example 34, N-[(4-Chlorophenyl)methyl]-4-hydroxy-7-[[(phenylmethyl)-sulfonyl]amino]-3-quinolinecarboxamide]: 17.9 µM; for `CSc1ccc2c(O)c(C(=O)NCc3ccc(Cl)cc3)cnc2c1` [Example 278, N-(4-Chlorobenzyl)-4-hydroxy-7-(methylsulfanyl)-3-quinolinecarboxamide]: 2.1 µM; for `O=C(NCc1ccc(Cl)cc1)c1cnc2c(Cl)cccc2c1O` [Example 46, 8-Chloro-N-[(4-chlorophenyl)methyl]-4-hydroxy-3-quinolinecarboxamide]: 2.8 µM.
For `N#CCc1ccc2ncc(C(=O)NCc3ccc(Cl)cc3)c(O)c2c1` [Example 41, N-[(4-Chlorophenyl)methyl]-6-(cyanomethyl)-4-hydroxy-3-quinolinecarboxamide], the IC50 amounted to 12.1 µM.
The value for `O=C(NCc1ccc(Cl)cc1)c1cnc2c(F)cc(S(=O)(=O)NCCNc3cccc4ccccc34)cc2c1O` [Example 238, N-(4-chlorobenzyl)-8-fluoro-4-hydroxy-6-({[2-(1-naphthylamino)ethyl]amino}sulfonyl)-3-quinolinecarboxamide] was 1.6 µM.
